36 compounds from US6933317B2, “PGD2 receptor antagonistic pharmaceutical compositions” (Shionogi & Co. Ltd., priority 2000, dated 2005) can be followed below.

One data set has as its target T1, PGD2 receptor (Homo sapiens, UniProt Q13258).
T1 construct: Peripheral blood was collected from a healthy volunteer; endogenous in cells; host or cells: washed human platelets from peripheral blood of a healthy volunteer
T1 sequence (Q13258 1-359): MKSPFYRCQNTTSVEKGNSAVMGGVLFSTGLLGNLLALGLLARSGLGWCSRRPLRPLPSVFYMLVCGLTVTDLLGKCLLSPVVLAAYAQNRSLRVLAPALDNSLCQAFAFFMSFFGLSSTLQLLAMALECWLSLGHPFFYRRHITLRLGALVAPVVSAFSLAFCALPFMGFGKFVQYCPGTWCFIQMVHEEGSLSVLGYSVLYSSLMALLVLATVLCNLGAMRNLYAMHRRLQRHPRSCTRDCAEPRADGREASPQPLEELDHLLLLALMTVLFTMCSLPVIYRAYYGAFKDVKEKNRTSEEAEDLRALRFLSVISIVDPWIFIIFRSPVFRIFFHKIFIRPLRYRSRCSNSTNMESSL
In words: Antagonistic activity against PGD2 receptor using human platelet (inhibition of PGD2-induced cAMP increase). The format is cell-based. As to conditions: 0.1 μM PGD2, cAMP by radioimmunoassay, read-out: Inhibitory activity for the increase of cAMP caused by PGD2 in human platelet IC50. The procedure:
Experiment 2 Evaluation of Antagonistic Activity Against PGD2 Receptor Using Human Platelet
Peripheral blood was collected from a healthy volunteer using a syringe in which 1/9 volume of a citric acid/dextrose solution was previously added. The sample was subjected to centrifugation at 1200 rpm for 10 min to obtain the supernatant (PRP: platelet rich plasma). The resultant PRP was washed 3 times with a washing buffer and the number of platelets was counted with a micro cell counter. A suspension adjusted to contain the platelets at a final concentration of 5×10^8/ml was warmed at 37° C., then subjected to the pre-treatment with 3-isobutyl-1-methylxanthine (0.5 mM) for 5 min. To the suspension was added a test compound diluted at various concentration, and 10 minutes later, 0.1 μM PGD2 was added to induce the reaction 2 minutes later, hydrochloric acid was added to terminate the reaction. The platelet was destroyed with an ultrasonic homogenizer. After centrifugation, the cAMP in the supernatant was determined by radioimmunoassay.

Data set [1] in a line: Change of plasma concentration of drug in rat (half life of the disappearance after intravenous administration). The format is in vivo. As to conditions: Jcl-SD male rats, 0.5 to 2 mg/kg, plasma concentration of unchanged compound. The procedure: Experiment 3 Change of Plasma Concentration of Drug in Rat
Compound (0.5 to 2 mg/kg) was administered intravenously to Jcl-SD male rats. The concentration of the unchanged compound was measured at 2, 5, 15, 30, 60, 120, and 240 min after the administration by the use of HPLC (determination limit; 0.05 μg/ml) and LC/MS/MS (determination limit; 0.001 μg/ml) and the half life of the disappearance was calculated. [drawing 387]

SMILES strings stand for the structures.

For `CC1(C)[C@H]2C[C@H](CCCC/C=C/C(=O)O)[C@@H](NC(=O)c3cc4ccsc4[nH]3)[C@@H]1C2` [IIa-66], the IC50 – broadly, the concentration at which inhibition is half-maximal – at PGD2 receptor worked out at 17 nM.

Take `O=C(O)/C=C/CCCC[C@H]1[C@@H]2CC[C@@H](C2)[C@@H]1NC(=O)c1cc2sccc2[nH]1` [Ia-65]: the IC50 at PGD2 receptor worked out at 18 nM.

Consider `CC1(C)[C@H]2C[C@H](CCCCOCC(=O)O)[C@@H](NC(=O)c3csc4ccc(NC(N)=O)cc34)[C@@H]1C2` [IIc-86], for which the 50% inhibitory concentration (IC50) at PGD2 receptor stood at 8 nM.

As for `CC1(C)[C@H]2C[C@H](C/C=C\CCCC(=O)O)[C@@H](NC(=O)c3coc4ccc(O)cc34)[C@@H]1C2` [Reference compound 3], the half-life – broadly, how long it takes for the measured level to halve – in data set [1] was found to be 8.7 min.

On to `Cc1ccc2scc(C(=O)N[C@@H]3[C@@H](CCCCOCC(=O)O)C[C@H]4C[C@@H]3C4(C)C)c2c1` [IIc-20], for which the melting point (usually the temperature of the solid-liquid transition) is 87 to 90 °C. Also, the IC50 on PGD2 receptor came to 15 nM.

Take `CC1(C)[C@H]2C[C@H](CCCC/C=C/C(=O)O)[C@@H](NC(=O)c3coc4ccc(O)cc34)[C@@H]1C2` [IIa-52]: the melting point lay in the range of 159 to 160 °C. In addition, the IC50 at PGD2 receptor stood at 3.7 nM. In addition, the half-life in data set [1] worked out at 16.7 min.

Take `CC1(C)[C@H]2C[C@H](CCCCOCC(=O)O)[C@@H](NC(=O)c3csc4ccc(CNS(C)(=O)=O)cc34)[C@@H]1C2` [IIc-96]: the IC50 at PGD2 receptor came out at 17 nM.

In the case of `CC1(C)[C@H]2C[C@H](CCCC/C=C/C(=O)O)[C@@H](NC(=O)c3cccc4ccsc34)[C@@H]1C2` [IIa-34], the melting point fell in the range of 141 to 142 °C. The 50% inhibitory concentration (IC50) at PGD2 receptor is 14 nM. The half-life in data set [1] was found to be 34.6 min.

For the compound `O=C(O)COCCCC[C@H]1[C@@H]2CC[C@@H](C2)[C@@H]1NC(=O)c1csc2ccc(O)cc12` [Ic-23], the melting point lay in the range of 149 to 151 °C. Besides, on PGD2 receptor, the IC50 was 10 nM.

In the case of `CC1(C)[C@H]2C[C@H](CCCCOCC(=O)O)[C@@H](NC(=O)c3ccsc3)[C@@H]1C2` [IIc-4], the IC50 at PGD2 receptor is 18 nM. In data set [1], the half-life worked out at 44.3 min.

`CC1(C)[C@H]2C[C@H](C/C=C\CCCC(=O)O)[C@@H](NC(=O)c3ccsc3)[C@@H]1C2` [Reference compound 1, reference compound]: the half-life in data set [1] came to 8 min.

`CC1(C)[C@H]2C[C@H](CCCCOCC(=O)O)[C@@H](NC(=O)c3cccc4ccsc34)[C@@H]1C2` [IIc-34] came in with a melting point of 95 to 96 °C. At PGD2 receptor, the IC50 was found to be 11 nM. The compound further returned a half-life in data set [1] of 66.7 min.

As to `CC1(C)[C@H]2C[C@H](CCCCOCC(=O)O)[C@@H](NC(=O)c3coc4ccc(NC(N)=O)cc34)[C@@H]1C2` [IIc-135], the IC50 at PGD2 receptor was 3 nM.

With `CC1(C)[C@H]2C[C@H](CCCCOCC(=O)O)[C@@H](NC(=O)c3csc4cc(O)ccc34)[C@@H]1C2` [IIc-22], the IC50 on PGD2 receptor came out at 4.6 nM.

Turning to `CC1(C)[C@H]2C[C@H](CCCCOCC(=O)O)[C@@H](NC(=O)c3csc4ccccc34)[C@@H]1C2` [IIc-17], the melting point fell in the range of 125 to 126 °C. Moreover, the IC50 at PGD2 receptor turned out to be 5.4 nM.

Turning to `Cc1cc(O)cc2c(C(=O)N[C@@H]3[C@@H](CCCCOCC(=O)O)C[C@H]4C[C@@H]3C4(C)C)coc12` [IIc-81], at PGD2 receptor, the IC50 was 8 nM.

`CC1(C)[C@H]2C[C@H](CCCC/C=C/C(=O)O)[C@@H](NC(=O)c3csc4ccc(F)cc34)[C@@H]1C2` [IIa-28]: at PGD2 receptor, the IC50 is 16 nM.

For the compound `O=C(O)COCCCC[C@H]1[C@@H]2CC[C@@H](C2)[C@@H]1NC(=O)c1csc2cc(O)ccc12` [Ic-22], the melting point is 76 to 79 °C. Moreover, the IC50 on PGD2 receptor is 10 nM.

On to `CC1(C)[C@H]2C[C@H](CCCCOCC(=O)O)[C@@H](NC(=O)c3csc4ccc(F)cc34)[C@@H]1C2` [IIc-28], for which the melting point lay in the range of 144 to 146 °C. At PGD2 receptor, the IC50 is 13 nM.

`CC1(C)[C@H]2C[C@H](CCCCSCC(=O)O)[C@@H](NC(=O)c3csc4cccc(O)c34)[C@@H]1C2` [IIe-24]: the IC50 on PGD2 receptor was determined as 5.7 nM.

As for `CC1(C)[C@H]2C[C@H](CCCCSCC(=O)O)[C@@H](NC(=O)c3csc4cc(O)ccc34)[C@@H]1C2` [IIe-22], the IC50 on PGD2 receptor turned out to be 4.8 nM.

In the case of `CC1(C)[C@H]2C[C@H](CCCC/C=C/C(=O)O)[C@@H](NC(=O)c3csc4cc(O)ccc34)[C@@H]1C2` [IIa-22], on PGD2 receptor, the IC50 came to 3.7 nM.

With `CC1(C)[C@H]2C[C@H](CCCCOCC(=O)O)[C@@H](NC(=O)c3csc4cccc(O)c34)[C@@H]1C2` [IIc-24], the IC50 on PGD2 receptor worked out at 13 nM.

On to `CC1(C)[C@H]2C[C@H](CCCCOCC(=O)O)[C@@H](NC(=O)c3csc4ccc(CNC(N)=O)cc34)[C@@H]1C2` [IIc-97], for which, on PGD2 receptor, the IC50 was found to be 11 nM.

Take `CC1(C)[C@H]2C[C@H](CCCCOCC(=O)O)[C@@H](NC(=O)c3csc4cc(F)c(O)cc34)[C@@H]1C2` [IIc-128]: the IC50 at PGD2 receptor came to 5 nM.

The compound `CC1(C)[C@H]2C[C@H](CCCCOCC(=O)O)[C@@H](NC(=O)c3csc4ccc(C(N)=O)cc34)[C@@H]1C2` [IIc-99] yielded a melting point of 164 to 166 °C. The IC50 at PGD2 receptor was 6 nM.

In turn, `CC1(C)[C@H]2C[C@H](C/C=C\CCCC(=O)O)[C@@H](NC(=O)c3cccc4ccsc34)[C@@H]1C2` [Reference compound 2, reference compound] registered a half-life in data set [1] of 17 min.

In turn, `O=C(O)/C=C/CCCC[C@H]1[C@@H]2CC[C@@H](C2)[C@@H]1NC(=O)c1csc2ccccc12` [Ia-17] came in with a melting point of 155 to 157 °C. On PGD2 receptor, the IC50 is 11 nM.

Consider `CC1(C)[C@H]2C[C@H](CCCC/C=C/C(=O)O)[C@@H](NC(=O)c3coc4cc(F)ccc34)[C@@H]1C2` [IIa-54], for which, at PGD2 receptor, the IC50 was 15 nM.

In turn, `Cc1ccc2scc(C(=O)N[C@H]3[C@H]4CC[C@H](C4)[C@@H]3CCCC/C=C/C(=O)O)c2c1` [Ia-20] came in with a melting point of 129 to 131 °C. Moreover, the IC50 on PGD2 receptor stood at 17 nM.

As for `CC1(C)[C@H]2C[C@H](CCCC/C=C/C(=O)O)[C@@H](NC(=O)c3csc4ccccc34)[C@@H]1C2` [IIa-17], the IC50 on PGD2 receptor was 15 nM.

Regarding `CC1(C)[C@H]2C[C@H](CCCCSCC(=O)O)[C@@H](NC(=O)c3cccc4ccsc34)[C@@H]1C2` [IIe-34], the melting point lay in the range of 143 to 144 °C. Moreover, the IC50 on PGD2 receptor came to 19 nM.

Consider `COc1cc2c(C(=O)N[C@@H]3[C@@H](CCCCOCC(=O)O)C[C@H]4C[C@@H]3C4(C)C)csc2cc1F` [IIc-129], for which the IC50 at PGD2 receptor stood at 18 nM.

As to `CCOC(=O)Nc1ccc2scc(C(=O)N[C@@H]3[C@@H](CCCCC(=O)O)C[C@H]4C[C@@H]3C4(C)C)c2c1` [IIf-84], the IC50 on PGD2 receptor worked out at 20 nM.

For the compound `CC1(C)[C@H]2C[C@H](CCCC/C=C/C(=O)O)[C@@H](NC(=O)c3ccsc3)[C@@H]1C2` [IIa-4], the IC50 on PGD2 receptor came to 19 nM. In addition, the half-life in data set [1] is 21.6 min.

Consider `CC1(C)[C@H]2C[C@H](CCCCSCC(=O)O)[C@@H](NC(=O)c3csc4ccc(F)cc34)[C@@H]1C2` [IIe-28], for which the melting point lay within 197 to 199 °C. In addition, the IC50 at PGD2 receptor turned out to be 17 nM.
